The nature of data set [1]: Solubility in typical organic solvents. The following applies: for solubility compared with compound V-1: in typical organic solvents; for solubility: organic solvent or mixture. It counts as physicochemical. The source says:
Reference is made to the below table.

Data set [2] is described as follows: Spectroscopic data: absorption, emission, Stokes shift, extinction coefficient, fluorescence quantum yield. It counts as physicochemical. The following applies: for φfl (fluorescence quantum yield): standards Rhodamine B or Rhodamine 6G in EtOH. The source says:
Spectroscopic data of compounds 3a, 3b and 3d as well as comparative compounds
Rhodamine B in EtOH or Rhodamine 6G in EtOH are used as standards for quantum yield measurements.

[3] abbreviates: in CHCl3, read-out: Solubility in CHCl3.
Where [4] appears, read: in Toluene, read-out: Solubility in Toluene.

What is called solubility is the concentration that dissolves in the medium under given conditions. Usually melting point stands for the temperature, or range, at which the solid turns liquid.

Values joined by “and” are separate entries in the source; they are usually repeats but may differ in a detail not shown here. Equal entries are not always repeated. Where two headings read alike, the source gives them in different places.

In the case of `COc1cc2c(cc1OC)C1=C3C(=O)N4C=C(c5ccccc5)c5cc(OC)c(OC)cc5C4=C3C(=O)N1C=C2c1ccccc1` [3a], the “solubility compared with compound V-1” value in data set [1] is given as “order of magnitude higher”. For the same compound, in data set [1] (setting [3]), the solubility is 3460 µM and 2110 µg/mL. Also, the solubility in data set [1] (setting [4]) was 47 µM and 28.6 µg/mL. Further, the “fluorescence quantum yield” value in data set [2] was “around 80%”. Also, in data set [2] (solvent CHCl3), the Stokes shift is 140 cm⁻¹, the maxλabs amounted to 600 nm, the maxλem stood at 605 nm and the εmax amounted to 100000 M⁻¹ cm⁻¹. The “φfl (fluorescence quantum yield)” value in data set [2] (solvent CHCl3) came out at 0.89.

`CC(C)(C)c1cc(C(C)(C)C)c2oc3c(c2c1)C=CN1C(=O)C2=C4c5oc6c(C(C)(C)C)cc(C(C)(C)C)cc6c5C=CN4C(=O)C2=C31` [V-2]: in data set [2] (solvent CHCl3), the Stokes shift was found to be 210 cm⁻¹, the maxλabs is listed as 643 nm, the maxλem is on record as 652 nm and the εmax was 120000 M⁻¹ cm⁻¹. In addition, the “φfl (fluorescence quantum yield)” value in data set [2] (solvent CHCl3) is recorded as 0.05. For the same compound, in data set [2] (solvent DMF), the Stokes shift came out at 240 cm⁻¹, the maxλabs worked out at 645 nm, the maxλem is listed as 655 nm and the εmax came to 107000 M⁻¹ cm⁻¹. In data set [2] (solvent DMF), the “φfl (fluorescence quantum yield)” value is recorded as 0.02.

Consider `COc1cc2c(cc1OC)C1=C3C(=O)N4C=Cc5cc(OC)c(OC)cc5C4=C3C(=O)N1C=C2` [V-1], for which, in data set [1] (setting [3]), the solubility is 272 µM and 126 µg/mL. In addition, the solubility in data set [1] (setting [4]) is 6.13 µM and 2.85 µg/mL. In data set [2] (solvent CHCl3), the Stokes shift was 200 cm⁻¹, the maxλabs amounted to 593 nm, the maxλem stood at 600 nm and the εmax was found to be 110000 M⁻¹ cm⁻¹. In addition, the “φfl (fluorescence quantum yield)” value in data set [2] (solvent CHCl3) was 0.19. In data set [2] (solvent DMF), the Stokes shift came to 220 cm⁻¹, the maxλabs was found to be 593 nm, the maxλem was 601 nm and the εmax came out at 91000 M⁻¹ cm⁻¹. Also, the “φfl (fluorescence quantum yield)” value in data set [2] (solvent DMF) is reported as 0.22.

Consider `CC(C)(C)c1cc(C(C)(C)C)c2oc3c(c2c1)C(c1ccccc1)=CN1C(=O)C2=C4c5oc6c(C(C)(C)C)cc(C(C)(C)C)cc6c5C(c5ccccc5)=CN4C(=O)C2=C31` [3d], for which the melting point is > 400 °C (dec.). Besides, in data set [1], the “solubility compared with compound V-1” value is “order of magnitude higher”. Further, the “fluorescence quantum yield” value in data set [2] is reported as “around 80%”. In data set [2] (solvent CHCl3), the Stokes shift came to 160 cm⁻¹, the maxλabs worked out at 654 nm, the maxλem is listed as 661 nm and the εmax was determined as 150000 M⁻¹ cm⁻¹. Besides, in data set [2] (solvent CHCl3), the “φfl (fluorescence quantum yield)” value was 0.81.

For `COc1cccc(C2=CN3C(=O)C4=C5c6cc(OC)c(OC)cc6C(c6cccc(OC)c6)=CN5C(=O)C4=C3c3cc(OC)c(OC)cc32)c1` [3b], the “solubility compared with compound V-1” value in data set [1] is given as “order of magnitude higher”. Besides, the solubility in data set [1] (setting [3]) was 955 µM and 639 µg/mL. In addition, in data set [1] (setting [4]), the solubility was 53.4 µM and 35.7 µg/mL. Further, in data set [2], the “fluorescence quantum yield” value is given as “around 80%”. Also, in data set [2] (solvent CHCl3), the Stokes shift came out at 220 cm⁻¹, the maxλabs came to 601 nm, the maxλem stood at 609 nm and the εmax is 85000 M⁻¹ cm⁻¹. For the same compound, in data set [2] (solvent CHCl3), the “φfl (fluorescence quantum yield)” value is 0.85.

These data come from US9893302B2, “Heterocyclic fluorescent dyes and method of production thereof” (BASF SE, priority 2013, dated 2018).
